Measured values from US20250382277A1, “SMALL MOLECULE INHIBITORS OF DYRK/CLK AND USES THEREOF” (Arizona Board of Regents on Behalf of the University of …, priority 2022, published 2025).
pEC50, pKd: −log10 of the molar value.

Columns and labels:
DYRK1A [1] = biological target: T1, DYRK1A (Homo sapiens, UniProt Q13627); assay: KdELECT Kinase Assay Panel (Eurofins) binding affinity; details: read-out: DYRK1A Kd, duplicate 11-point dose-response curves
Description: (§1) KDs were obtained from Eurofins. The KdELECT Kinase Assay Panel enables quantitated compound binding affinity against any kinase assay. Inhibitor binding constants (Kd values) are calculated from duplicate 11-point dose-response curves. Measurements are made under optimized conditions that generate true thermodynamic Kd values which facilitate direct comparison of inhibitor affinity across kinases.

WNT signaling = assay: WNT reporter assay (TopGFP reporter); type: cell-based; details: Human Colonic Epithelial Cells (HCEC) with TopGFP reporter, stimulated with 10 μM CHIR99021, 24 hours
Description: KDs were obtained from Eurofins.

DYRK1A [2] = biological target: T1, DYRK1A; assay: biochemical
Description: as §1

pKd (DYRK1A [1]) | pEC50 (WNT signaling) | pKd (DYRK1A [2]) | Molecule
> 7.00 |  |  | 1-(5-(4-(6-(2-aminopyridin-4-yl)quinazolin-4-yl)-2-fluorophenyl)hexahydropyrrolo[3,4-c]pyrrol-2(1H)-yl)ethan-1-one [Compound 46]
 | > 7.00 | > 7.00 | CC(=O)N1CCN(c2ccc(-c3ccnc4ccc(-c5ccnc(N)c5)cc34)cc2)CC1 [Compound 38, 1-(4-(4-(6-(2-aminopyridin-4-yl)quinolin-4-yl)phenyl)piperazin-1-yl)ethan-1-one]
 | > 7.00 | > 7.00 | Nc1cc(-c2ccc3ncnc(-c4ccc(N5CCN(C6COC6)CC5)cc4)c3c2)ccn1 [Compound 42, 4-(4-(4-(4-(oxetan-3-yl)piperazin-1-yl)phenyl)quinazolin-6-yl)pyridin-2-amine]
 | 6.00 to 7.00 | > 7.00 | CC(=O)N1CC2(C1)CN(c1ccc(-c3ncnc4ccc(-c5ccnc(N)c5)cc34)cc1)C2 [Compound 44, 41-(6-(4-(6-(2-aminopyridin-4-yl)quinazolin-4-yl)phenyl)-2,6-diazaspiro[3.3]heptan-2-yl)ethan-1-one]
 | > 7.00 | > 7.00 | CS(=O)(=O)N1CCN(c2ccc(-c3ncnc4ccc(-c5ccnc(N)c5)cc34)cc2F)CC1 [Compound 47, 4-(4-(3-fluoro-4-(4-(methylsulfonyl)piperazin-1-yl)phenyl)quinazolin-6-yl)pyridin-2-amine]
 | > 7.00 | > 7.00 | CN(C)C(=O)N1CCN(c2ccc(-c3ncnc4ccc(-c5ccnc(N)c5)cc34)cc2F)CC1 [Compound 49, 4-(4-(6-(2-aminopyridin-4-yl)quinazolin-4-yl)-2-fluorophenyl)-N,N-dimethylpiperazine-1-carboxamide]
 | > 7.00 | > 7.00 | COC(=O)N1CCN(c2ccc(-c3ncnc4ccc(-c5ccnc(N)c5)cc34)cc2F)CC1 [Compound 52, methyl 4-(4-(6-(2-aminopyridin-4-yl)quinazolin-4-yl)-2-fluorophenyl)piperazine-1-carboxylate]
 | > 7.00 | > 7.00 | Nc1cc(-c2ccc3ncnc(-c4ccc(N5CCN(C(=O)C6CC6)CC5)c(F)c4)c3c2)ccn1 [Compound 53, (4-(4-(6-(2-aminopyridin-4-yl)quinazolin-4-yl)-2-fluorophenyl)piperazin-1-yl)(cyclopropyl)methanone]

Further lines, the molecule ahead of its results:

Molecule | pKd (DYRK1A [1]) | pEC50 (WNT signaling) | pKd (DYRK1A [2])
CCN1CCN(c2ccc(-c3ncnc4ccc(-c5ccnc(N)c5)cc34)cc2F)CC1 [Compound 36, 4-(4-(4-(4-ethylpiperazin-1-yl)-3-fluorophenyl)quinazolin-6-yl)pyridin-2-amine] |  | 6.00 to 7.00 | > 7.00
CC(=O)N1C[C@@H]2C[C@H]1CN2c1ccc(-c2ncnc3ccc(-c4ccnc(N)c4)cc23)cc1 [Compound 39, 1-((1S,4S)-5-(4-(6-(2-aminopyridin-4-yl)quinazolin-4-yl)phenyl)-2,5-diazabicyclo[2.2.1]heptan-2-yl)ethan-1-one] |  | 6.00 to 7.00 | > 7.00
CC(=O)N1C[C@@H]2C[C@H]1CN2c1ccc(-c2ncnc3ccc(-c4ccnc(N)c4)cc23)cc1F [Compound 40, 1-((1S,4S)-5-(4-(6-(2-aminopyridin-4-yl)quinazolin-4-yl)-2-fluorophenyl)-2,5-diazabicyclo[2.2.1]heptan-2-yl)ethan-1-one] |  | 6.00 to 7.00 | > 7.00
Nc1cc(-c2ccc3ncnc(-c4ccc(N5CCN(CCO)CC5)cc4)c3c2)ccn1 [Compound 41, 2-(4-(4-(6-(2-aminopyridin-4-yl)quinazolin-4-yl)phenyl)piperazin-1-yl)ethan-1-ol] |  | > 7.00 | > 7.00
CN1[C@@H]2CC[C@H]1CN(c1ccc(-c3ncnc4ccc(-c5ccnc(N)c5)cc34)cc1F)C2 [Compound 43, 4-(4-(3-fluoro-4-((1R,5S)-8-methyl-3,8-diazabicyclo[3.2.1]octan-3-yl)phenyl)quinazolin-6-yl)pyridin-2-amine] |  | 6.00 to 7.00 | > 7.00
CC(C)(C)N1CCN(c2ccc(-c3ncnc4ccc(-c5ccnc(N)c5)cc34)cc2F)CC1 [Compound 45, 4-(4-(4-(4-(tert-butyl)piperazin-1-yl)-3-fluorophenyl)quinazolin-6-yl)pyridin-2-amine] |  | 6.00 to 7.00 | > 7.00
CC(C)CN1CCN(c2ccc(-c3ncnc4ccc(-c5ccnc(N)c5)cc34)cc2F)CC1 [Compound 48, 4-(4-(3-fluoro-4-(4-isobutylpiperazin-1-yl)phenyl)quinazolin-6-yl)pyridin-2-amine] |  | > 7.00 | > 7.00
CC(C)N1CCN(c2ccc(-c3ncnc4ccc(-c5ccnc(N)c5)cc34)cc2F)CC1 [Compound 50, 4-(4-(3-fluoro-4-(4-isopropylpiperazin-1-yl)phenyl)quinazolin-6-yl)pyridin-2-amine] |  | 6.00 to 7.00 | > 7.00
[2H]C([2H])([2H])N1CCN(c2ccc(-c3ncnc4ccc(-c5ccnc(N)c5)cc34)cc2F)CC1 [Compound 51, 4-(4-(3-fluoro-4-(4-(methyl-d3)piperazin-1-yl)phenyl)quinazolin-6-yl)pyridin-2-amine] |  | > 7.00 | > 7.00
COCCN1CCN(c2ccc(-c3ncnc4ccc(-c5ccnc(N)c5)cc34)cc2F)CC1 [Compound 54, 4-(4-(3-fluoro-4-(4-(2-methoxyethyl)piperazin-1-yl)phenyl)quinazolin-6-yl)pyridin-2-amine] |  | > 7.00 | > 7.00
Nc1cc(-c2ccc3ncnc(-c4ccc(N5CCN(C6CCOCC6)CC5)c(F)c4)c3c2)ccn1 [Compound 55, 4-(4-(3-fluoro-4-(4-(tetrahydro-2H-pyran-4-yl)piperazin-1-yl)phenyl)quinazolin-6-yl)pyridin-2-amine] |  | > 7.00 | > 7.00
Nc1cc(-c2ccc3ncnc(-c4ccc(N5CCN(C6COC6)CC5)c(F)c4)c3c2)ccn1 [Compound 56, 4-(4-(3-fluoro-4-(4-(oxetan-3-yl)piperazin-1-yl)phenyl)quinazolin-6-yl)pyridin-2-amine] |  | > 7.00 | > 7.00
